Our source for the Kd values is PMC11066976 (Cell reports, 2023).

Read-outs that look alike come from different tables or passages of the source.

Experiment in all cases: compensated interferometric reader
The target in test [1] is T1, transcobalamin 2 (TCN2) (Homo sapiens, UniProt P20062).
T1 sequence (P20062 19-427): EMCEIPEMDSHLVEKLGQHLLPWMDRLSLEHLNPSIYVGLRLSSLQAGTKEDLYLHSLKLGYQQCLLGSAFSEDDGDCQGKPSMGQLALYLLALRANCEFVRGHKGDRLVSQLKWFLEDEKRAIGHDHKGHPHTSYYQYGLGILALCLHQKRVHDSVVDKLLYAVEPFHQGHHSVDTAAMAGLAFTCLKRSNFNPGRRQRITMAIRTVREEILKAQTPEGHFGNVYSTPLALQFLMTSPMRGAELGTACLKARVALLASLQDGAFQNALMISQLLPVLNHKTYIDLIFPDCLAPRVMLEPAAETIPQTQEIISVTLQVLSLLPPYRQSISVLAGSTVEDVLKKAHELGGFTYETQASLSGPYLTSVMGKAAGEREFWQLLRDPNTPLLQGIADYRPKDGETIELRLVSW
It is filed as binding.

The target of test [2] is T2, CD320 (Homo sapiens, UniProt Q9NPF0).
T2 sequence (Q9NPF0 36-229 limits assumed): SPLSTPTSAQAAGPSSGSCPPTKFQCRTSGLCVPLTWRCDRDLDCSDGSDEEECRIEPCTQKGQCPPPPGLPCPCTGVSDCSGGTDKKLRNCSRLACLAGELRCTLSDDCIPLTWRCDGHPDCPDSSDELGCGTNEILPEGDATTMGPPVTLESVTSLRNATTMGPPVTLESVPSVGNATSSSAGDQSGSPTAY
The format is binding.

Test [3] deals with T1, transcobalamin 2 (TCN2). It is filed as binding. The source holds these as a separate data set.
For test [4], the target named is T3, Recombinant human TCN2 (human, UniProt P20062 19-427).
T3 sequence (looked up): T1 sequence (P20062 19-427)

One may read the Kd as the free concentration of one partner at which half of the binding sites on the other are occupied at equilibrium, for simple one-to-one binding. In turn, `CCCCCCCCc1ccc(CCC(N)(CO)CO)cc1` [FTY720] came in with a Kd in test [1] of 0.24 nM.

Turning to `CCCCCCCCCCCCC/C=C/[C@@H](O)[C@@H](N)COP(=O)(O)O` [S1P], the Kd in test [2] was 11.8 nM.

As for `CCCCCCCCCCCCC/C=C/[C@@H](O)[C@@H](N)CO` [sphingosine], the Kd in test [3] came out at 0.14 nM.

With Vitamin B12, the Kd in test [3] came to 0.19 nM.

B1: Recombinant human CD320 (receptor, UniProt Q9NPF0 36-229, looked up)
chain: T2 sequence (Q9NPF0 36-229 limits assumed)
For the molecule B1, the Kd in test [4] came to 1.86 nM.
